Test results from patent publication US9145372B2, “Pyridazine derivatives, compositions and methods for treating cognitive impairment” (AGENEBIO, INC., priority 2010, dated 2015).
Entries after “also recorded” stand apart in the source; their conditions may differ.

Tests used:
[1] = target: T1, GABAA α5β3γ2 subtype receptor (Homo sapiens, UniProt P18507+P31644); assay: GABA-gated Cl- current potentiation in Xenopus oocytes expressing GABAA α5β3γ2 (TEVC); type: cell-based; settings: for activation at 1 µM: read-out: GABA α5 EC50 % potentiation; for positive allosteric modulation of GABA at GABAA α5 receptors: concentration response 0.01-100 μM, FIGS. 1(A)-(D)
T1 construct: myc-His (vector-encoded); expressed in transfected cells; host or cells: Xenopus laevis oocytes injected with cDNAs
T1 sequence (P31644 32-462): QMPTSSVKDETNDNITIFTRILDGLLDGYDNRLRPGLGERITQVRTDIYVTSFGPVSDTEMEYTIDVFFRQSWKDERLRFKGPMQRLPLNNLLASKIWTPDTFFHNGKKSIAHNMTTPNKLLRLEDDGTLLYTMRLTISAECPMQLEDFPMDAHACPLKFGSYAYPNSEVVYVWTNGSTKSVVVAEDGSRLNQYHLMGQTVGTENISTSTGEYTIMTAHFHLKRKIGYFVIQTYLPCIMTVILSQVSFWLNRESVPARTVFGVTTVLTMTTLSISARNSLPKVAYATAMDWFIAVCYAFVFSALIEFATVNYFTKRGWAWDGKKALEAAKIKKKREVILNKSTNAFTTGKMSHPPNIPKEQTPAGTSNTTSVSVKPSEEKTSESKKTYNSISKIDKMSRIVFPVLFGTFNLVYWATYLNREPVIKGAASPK
T1 sequence (P28472 26-473 partner): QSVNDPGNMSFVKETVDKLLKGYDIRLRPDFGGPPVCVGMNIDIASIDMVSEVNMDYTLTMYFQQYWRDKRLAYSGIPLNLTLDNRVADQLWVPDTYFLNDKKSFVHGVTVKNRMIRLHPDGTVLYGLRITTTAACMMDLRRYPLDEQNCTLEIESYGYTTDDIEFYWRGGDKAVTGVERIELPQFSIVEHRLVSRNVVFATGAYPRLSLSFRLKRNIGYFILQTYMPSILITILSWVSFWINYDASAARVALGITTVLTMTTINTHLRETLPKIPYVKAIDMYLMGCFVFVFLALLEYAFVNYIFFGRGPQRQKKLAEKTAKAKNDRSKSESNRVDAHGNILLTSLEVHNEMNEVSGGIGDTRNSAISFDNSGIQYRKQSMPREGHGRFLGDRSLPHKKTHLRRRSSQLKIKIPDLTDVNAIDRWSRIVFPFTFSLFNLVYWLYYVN
T1 sequence (P18507 40-467 limits assumed): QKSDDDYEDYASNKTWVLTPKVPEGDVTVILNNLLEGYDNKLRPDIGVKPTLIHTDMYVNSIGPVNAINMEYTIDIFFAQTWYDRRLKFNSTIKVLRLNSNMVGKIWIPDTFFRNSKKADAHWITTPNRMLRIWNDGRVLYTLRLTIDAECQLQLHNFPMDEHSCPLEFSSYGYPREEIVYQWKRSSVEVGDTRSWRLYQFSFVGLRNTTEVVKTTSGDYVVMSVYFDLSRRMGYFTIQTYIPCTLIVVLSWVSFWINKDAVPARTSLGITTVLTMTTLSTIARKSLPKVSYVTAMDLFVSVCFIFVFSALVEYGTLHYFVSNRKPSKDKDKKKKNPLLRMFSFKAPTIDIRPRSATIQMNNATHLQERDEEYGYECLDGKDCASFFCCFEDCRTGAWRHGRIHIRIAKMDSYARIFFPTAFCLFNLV
Text: (§1) Step 1: Establish Clones of GABAAR Subunits (α5, β3, γ2, α1, α2 and α3) and Prepare the Corresponding cRNAs: Human clones of GABAA-R α5, β3, γ2, α1, α2 and α3 subunits are obtained from commercial resources (e.g., OriGene, http://www.origene.com and Genescript, http://www.genescript.com). These clones are engineered into pRC, pCDM, pcDNA, and pBluescript KSM vector (for oocyte expression) or other equivalent expression vectors. Conventional transfection agents (e.g., FuGene, Lipofectamine 2000, or others) are used to transiently transfect host cells.
Adult female Xenopus laevis frogs were purchased from Nasco (Fort Atkinson, Wis.). […] All chemicals used were of reagent grade. […] Stock solutions of Diazepam, Flumazenil and compounds of the present invention were prepared in dimethyl sulfoxide (DMSO) and then diluted to an appropriate concentration with the extracellular solution just before use. To avoid adverse effects from DMSO exposure, the final concentration of DMSO was not higher than 0.3% (v/v).
Upon conclusion of compound testing and successful washout, a 1.0 μM Diazepam was tested and used for comparative activity on the two GABAAR subtypes.
Other concentrations of the test compound may also be tested following the same protocol.
Results are expressed as mean±SEM.

[2] = target: T2, GABAA α1 receptors (α1β2γ2) (Homo sapiens, UniProt P14867+P18507); assay: GABA-gated Cl- current in Xenopus oocytes expressing GABAA α1β2γ2 (TEVC), off-target activity; type: cell-based; settings: concentration response 0.01-100 μM; FIGS. 1(A)-(D)
T2 construct: expressed in transfected cells; host or cells: Xenopus laevis oocytes injected with cDNAs
T2 sequence (P14867 28-456): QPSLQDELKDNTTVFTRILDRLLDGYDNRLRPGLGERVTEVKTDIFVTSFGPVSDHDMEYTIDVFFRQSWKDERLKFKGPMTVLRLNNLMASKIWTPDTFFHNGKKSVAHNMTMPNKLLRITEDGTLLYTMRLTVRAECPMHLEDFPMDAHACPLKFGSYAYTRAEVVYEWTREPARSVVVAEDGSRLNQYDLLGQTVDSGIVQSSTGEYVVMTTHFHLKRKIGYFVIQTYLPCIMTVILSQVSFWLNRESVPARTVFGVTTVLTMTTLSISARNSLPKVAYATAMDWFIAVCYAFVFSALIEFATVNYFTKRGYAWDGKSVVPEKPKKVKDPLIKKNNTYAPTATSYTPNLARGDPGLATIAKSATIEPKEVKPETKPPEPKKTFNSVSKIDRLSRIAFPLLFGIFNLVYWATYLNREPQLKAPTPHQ
T2 sequence (P47870 25-512 partner limits assumed): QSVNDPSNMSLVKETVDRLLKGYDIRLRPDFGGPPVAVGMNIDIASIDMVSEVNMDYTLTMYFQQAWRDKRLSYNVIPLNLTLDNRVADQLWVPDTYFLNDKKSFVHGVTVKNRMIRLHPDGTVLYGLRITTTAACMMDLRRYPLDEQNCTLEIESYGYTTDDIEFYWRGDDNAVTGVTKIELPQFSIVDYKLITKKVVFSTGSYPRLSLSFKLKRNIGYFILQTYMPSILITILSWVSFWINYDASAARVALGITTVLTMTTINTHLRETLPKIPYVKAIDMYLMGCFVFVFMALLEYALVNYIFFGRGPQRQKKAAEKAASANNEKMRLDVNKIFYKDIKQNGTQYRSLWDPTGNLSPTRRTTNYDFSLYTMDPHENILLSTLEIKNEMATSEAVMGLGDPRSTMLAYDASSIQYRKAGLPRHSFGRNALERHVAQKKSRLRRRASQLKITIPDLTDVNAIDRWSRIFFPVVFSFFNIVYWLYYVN
T2 sequence (P18507 40-467 limits assumed): T1 sequence (P18507 40-467 limits assumed)
Text: as §1
Xenopus oocytes were isolated according to previously published procedures (see, e.g., Goldin et al. Methods Enzymol. 207:266-279 (1992)). The isolated Xenopus oocytes were injected with GABAAR cDNAs (1:1:1 ratio for a total volume of 1 ng of α1βγ2 or α5β3γ2) cloned into mammalian expression vectors. In particular, α1, β2, γ2 were cloned into pcDNA3.1. and α5 and β3 were cloned into pcDNA3.1 myc-His. Vectors were verified by partial sequencing (DNA Core Facility, University of Southern California, USA). After injection, oocytes were stored in incubation medium (Modified Barth's Saline (MBS) supplemented with 2 mM sodium pyruvate, 0.5 mM theophylline and 50 mg/L gentamycin), in petri dishes (VWR, San Dimas, Calif.). All solutions were sterilized by passage through 0.22 μM filters. […] Oocytes were used in experiments for up to 5 days after injection.
A high-throughput two-electrode voltage clamp (TEVC) system (OpusXpress A6000; Molecular Devices, Union City, Calif.), which automates the impalement of oocytes, fluid delivery and current recording from 8 oocytes in parallel, was used to carry out all electrophysiological recordings.
Xenopus Oocytes expressing GABAA-R α5β3γ2 or α1β2γ2 subtype, as prepared in section (A) above, were placed in 8 chambers of OpusXpress and perfused by MBS at 3 mL/min. Glass electrodes back-filled with 3 M KCl (0.5-3 megaohms) were used. Membrane potential of oocytes was voltage-clamped at −60 mV. Oocytes with holding current larger than 0.5 μA were discarded.
Data for each experimental point were obtained from 4 or more Xenopus oocytes and from at least two different frogs. The n refers to the number of Xenopus oocytes tested. Results are expressed as mean±SEM. […] Prism (GraphPAD Software, San Diego, Calif.) and Excel were used to perform curve fitting and statistical analyses.

[3] = target: GABAA α5 receptor (Rattus norvegicus, UniProt P18508+P19969); assay: GABAA α5 receptor occupancy in vivo with Ro 15-4513 tracer (hippocampus vs cerebellum); settings: tracer 1 μg/kg, i.v., after vehicle administration
Sequence of GABAA α5 receptor (P19969 32-464 limits assumed): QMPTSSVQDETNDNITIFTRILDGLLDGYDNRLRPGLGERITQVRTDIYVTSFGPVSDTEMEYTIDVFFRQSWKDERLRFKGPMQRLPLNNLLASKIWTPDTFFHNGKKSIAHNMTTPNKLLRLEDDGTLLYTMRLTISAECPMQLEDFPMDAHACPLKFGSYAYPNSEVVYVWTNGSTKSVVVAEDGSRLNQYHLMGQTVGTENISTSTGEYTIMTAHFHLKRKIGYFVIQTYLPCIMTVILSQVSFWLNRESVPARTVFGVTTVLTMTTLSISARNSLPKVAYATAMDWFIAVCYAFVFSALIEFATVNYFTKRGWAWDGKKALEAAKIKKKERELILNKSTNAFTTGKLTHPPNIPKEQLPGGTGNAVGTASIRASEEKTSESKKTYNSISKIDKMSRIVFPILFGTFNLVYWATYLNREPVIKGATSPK
Sequence of GABAA α5 receptor (P18508 39-466): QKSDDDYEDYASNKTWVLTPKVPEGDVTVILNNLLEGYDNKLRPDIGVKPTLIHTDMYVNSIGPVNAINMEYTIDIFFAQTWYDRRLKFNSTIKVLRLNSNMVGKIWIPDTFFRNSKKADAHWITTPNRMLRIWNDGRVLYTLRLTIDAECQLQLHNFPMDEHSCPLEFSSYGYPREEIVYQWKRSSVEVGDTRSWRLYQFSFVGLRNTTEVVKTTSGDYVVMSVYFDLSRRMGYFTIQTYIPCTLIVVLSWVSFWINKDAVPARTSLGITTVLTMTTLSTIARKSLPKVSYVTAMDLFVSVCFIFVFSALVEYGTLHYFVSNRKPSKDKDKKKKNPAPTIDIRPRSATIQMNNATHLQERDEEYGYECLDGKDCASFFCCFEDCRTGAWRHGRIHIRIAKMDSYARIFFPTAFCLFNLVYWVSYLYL
Sequence of GABAA α5 receptor (P63079 26-473 partner): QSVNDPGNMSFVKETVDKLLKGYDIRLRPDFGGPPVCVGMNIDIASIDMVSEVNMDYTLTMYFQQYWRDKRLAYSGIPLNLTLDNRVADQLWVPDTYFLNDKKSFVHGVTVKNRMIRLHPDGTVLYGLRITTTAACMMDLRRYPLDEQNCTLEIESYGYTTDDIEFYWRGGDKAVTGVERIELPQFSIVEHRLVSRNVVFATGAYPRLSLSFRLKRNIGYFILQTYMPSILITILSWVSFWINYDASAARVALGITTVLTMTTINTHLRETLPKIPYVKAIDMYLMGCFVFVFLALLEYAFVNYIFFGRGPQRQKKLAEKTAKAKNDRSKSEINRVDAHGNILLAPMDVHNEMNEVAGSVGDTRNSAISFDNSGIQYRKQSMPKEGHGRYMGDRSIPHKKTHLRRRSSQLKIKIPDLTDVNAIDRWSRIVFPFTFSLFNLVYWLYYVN
Text: Adult male Long Evans rats (265-295 g, Charles River, Portage, Mich., n=4/group) were used for GABAA α5 receptor occupancy studies. Rats were individually housed in ventilated stainless-steel racks on a 12:12 light/dark cycle. Food and water were available ad libitum.
Ro 15-4513 was used as a receptor occupancy (RO) tracer for GABAA α5 receptor sites in the hippocampus and cerebellum. Ro 15-4513 was chosen as the tracer based on its selectivity for GABAA α5 receptors relative to other alpha subunit containing GABAA receptors and because it has been successfully used for GABAA α5 RO studies in animals and humans (see, e.g., Lingford-Hughes et al., J. Cereb. Blood Flow Metab. 22:878-89 (2002); Pym et al, Br. J. Pharmacol. 146: 817-825 (2005); and Maeda et al., Synapse 47: 200-208 (2003)). Ro 15-4513 (1 μg/kg), was dissolved in 25% hydroxyl-propyl beta-cyclodextrin and administered i.v. 20′ prior to the RO evaluations. Methyl 3,5-diphenylpyridazine-4-carboxylate (0.1-10 mg/kg) was synthesized by Nox Pharmaceuticals (India) and was dissolved in 25% hydroxyl-propyl beta-cyclodextrin and administered i.v. 15′ prior to tracer injection.
The rats were sacrificed by cervical dislocation 20′ post tracer injection. The whole brain was rapidly removed, and lightly rinsed with sterile water. Trunk blood was collected in EDTA coated eppendorf tubes and stored on wet ice until study completion. Hippocampus and cerebellum were dissected and stored in 1.5 ml eppendorf tubes, and placed on wet ice until tissue extraction. In a drug naïve rat, six cortical brain tissues samples were collected for use in generating blank and standard curve samples.
Acetonitrile containing 0.1% formic acid was added to each sample at a volume of four times the weight of the tissue sample. For the standard curve (0.1-30 ng/g) samples, a calculated volume of standard reduced the volume of acetonitrile. The sample was homogenized (FastPrep-24, Lysing Matrix D; 5.5 m/s, for 60 seconds or 7-8 watts power using sonic probe dismembrator; Fisher Scientific) and centrifuged for 16-minutes at 14,000 rpm. The (100 μl) supernatant solution was diluted by 300 μl of sterile water (pH 6.5). This solution was then mixed thoroughly and analyzed via LC/MS/MS for […] (tracer) and methyl 3,5-diphenylpyridazine-4-carboxylate.
Receptor occupancy was determined by the ratio method which compared occupancy in the hippocampus (a region of high GABAA α5 receptor density) with occupancy in the cerebellum (a region with low GABAA α5 receptor density) and additionally by a high dose of the GABAA α5 negative allosteric modulator L-655,708 (10 mg/kg, i.v.) to define full occupancy.

Structure (SMILES)	activation at 1 µM [1] [%]	positive allosteric modulation of GABA at GABAA α5 receptors [1]	positive allosteric modulation at GABAA α1 receptors [2]	levels of Ro 15-4513 in hippocampus compared with cerebellum [3] [fold]
NC(=O)c1c(-c2ccccc2)cnnc1-c1ccccc1 [Compound 3]	11.1	–	–	–
O=C(NCc1ccccc1)c1c(-c2ccccc2)cnnc1-c1ccccc1 [Compound 9]	10	–	–	–
CC(C)NC(=O)c1c(-c2ccccc2)cnnc1-c1ccccc1 [Compound 2]	8.2	–	–	–
COC(=O)C1COC(c2c(-c3ccccc3)cnnc2-c2ccccc2)=N1 (centres unmarked) [Compound 25, Methyl 2-(3,5-diphenylpyridazin-4-yl)-4,5-dihydrooxazole-4-carboxylate]	8.6	–	–	–
CCc1coc(-c2c(-c3ccccc3)cnnc2-c2ccccc2)n1 [Compound 22, 2-(3,5-diphenylpyridazin-4-yl)-4-ethyloxazole]	8.6	–	–	–
COC(=O)c1coc(-c2c(-c3ccccc3)cnnc2-c2ccccc2)n1 [Compound 26, Methyl 2-(3,5-diphenylpyridazin-4-yl)oxazole-4-carboxylate]	15.8	strong positive allosteric modulation	markedly reduced positive allosteric modulation; also recorded: no evidence of activity	–
COC(=O)c1coc(-c2c(-c3ccccc3)cnnc2-c2cccc(OC)c2)n1 [Compound 29]	12.3	strong positive allosteric modulation	markedly reduced positive allosteric modulation	–
O=C(c1c(-c2ccccc2)cnnc1-c1ccccc1)N(Cc1ccccc1)Cc1ccccc1 [Compound 5]	4.6	–	–	–
COc1cccc(-c2nncc(-c3ccccc3)c2C(=O)O)c1 [Compound 11]	19.2	–	–	–
CC1COC(c2c(-c3ccccc3)cnnc2-c2ccccc2)=N1 (centres unmarked) [Compound 21, 2-(3,5-diphenylpyridazin-4-yl)-4-methyl-4,5-dihydrooxazole]	5.3	–	–	–
COc1cccc(-c2nncc(-c3ccccc3)c2-c2nc(C)co2)c1 [Compound 24]	6	–	–	–
COC(=O)c1coc(-c2c(-c3ccccc3)cnnc2-c2cccc(Cl)c2)n1 [Compound 27]	30.5	strong positive allosteric modulation	markedly reduced positive allosteric modulation	–
CNC(=O)c1c(-c2ccccc2)cnnc1-c1ccccc1 [Compound 1, N-methyl-3,5-diphenylpyridazine-4-carboxamide]	8.5	–	–	–
CCOC(=O)c1ncn2c1CN(C)C(=O)c1cc(N=[N+]=[N-])ccc1-2 [Ro 15-4513]	–	–	–	> 5
